Values of other authors as cited in patent US20060030550A1, “Pharmaceutical formulations” (priority 2004, published 2006).

Columns and labels:
[1] = preclinical testing
[2] = topically active steroid
[3] = R112 over placebo, recent study

With `O=c1ccn([C@@H]2O[C@H](COP(=O)(O)OP(=O)(O)OP(=O)(O)OP(=O)(O)OC[C@H]3O[C@@H](n4ccc(=O)[nH]c4=O)[C@H](O)[C@@H]3O)[C@@H](O)[C@H]2O)c(=O)[nH]1` [diquafosol] as the compound, how does the “secretions of natural tear components” value [1] read?
The value was “increased”.

For `Cc1cc(CCCOc2c(C)cc(-c3noc(C(F)(F)F)n3)cc2C)on1` [Pleconaril, 1,2,4-oxadiazole3-[3,5-Dimethyl-4-[3-(3-methyl-5-isoxazolyl)propoxy]phenyl]-5-(trifluoremethyl)], which activity against rhinoviruses (rhinoviruses) is on record?
Its activity against rhinoviruses is “active against rhinoviruses”.

Which bioavailability [2] does the source give for `C[C@@H]1C[C@H]2[C@@H]3CCC4=CC(=O)C=C[C@]4(C)[C@@]3(Cl)[C@@H](O)C[C@]2(C)[C@@]1(OC(=O)c1ccco1)C(=O)CCl` [Mometasone Furoate] here?
The bioavailability was “not readily bioavailable”.

With `Oc1cccc(Nc2ncc(F)c(Nc3cccc(O)c3)n2)c1` [R112] as the compound, how does the “symptoms most closely associated with chronic nasal congestion (e.g. stuffy nose)” value (R112 over placebo) read?
The value was “improved”.

And the “absolute difference over placebo” value [3]?
Its value is 9%.

And the “relative improvement over placebo” value [3]?
The value was “greater than 20%”.

And the “improvement from baseline measurements” value (baseline = prior to drug initiation)?
The value was “up to 38%”.
